Experimental data reported in paper PMC9616786, “Structure and function of the N-terminal extension of the formin INF2” (Cellular and Molecular Life Sciences, 2022).

These sequences were tested against T1, purified CaM from bovine brain (Bos taurus, UniProt P62157) (assay: Surface plasmon resonance, equilibrium binding of CaM to immobilized INF2 peptides). Details: SPR, in the presence of Ca2+ (1 mM CaCl2), 25 °C; Fig. 4B-D, Fig. S3F.
T1 construct: Calmodulin from bovine brain; purchased Sigma-Aldrich Cat#208694; host or cells: bovine brain (tissue-purified)
From the text: For use in surface plasmon resonance analysis, the peptide corresponding to amino acids 2-19 of human INF2 and similar peptides with replacements in the W11, L14 and L18 residues were synthesized in an automated multiple peptide synthesizer (Multipep, Intavis, Köln, Germany) in the Proteomics Facility of the Centro Nacional de Biotecnología (CSIC, Madrid). The INF2 2–36 peptide was obtained as a bespoke product with the same modifications from pepMic (Suzhou, China). These peptides contained two G residues at its N terminus to separate the INF2 sequence from an additional N-terminal end K residue, which was biotinylated in the ε-amino group. For use in NMR studies, the INF2 2–36 and 2-19 peptides were synthesized to order, without any modification, by CASLO ApS (Denmark). All the peptides were synthesized using the solid-phase synthetic procedures and standard Fmoc [N-(9-fluorenyl)methoxycarbonyl] chemistry, and then underwent reverse-phase HPLC purification.
All surface plasmon resonance experiments were carried out at 25 °C in a Biacore 3000 (Cytiva) robotic biosensor. Analyses were performed using HBSP (10 mM HEPES pH 7.4, 150 mM NaCl, 0.005% surfactant P20) supplemented with 1 mM CaCl2 as running buffer and for the dilution of analytes and ligands. Biotinylated peptides were individually immobilized on a streptavidin-coated sensor chip in flow cells 2, 3 and 4 at a flow rate of 10 µl/min (20–50 RU captured). The empty flow cell 1 was used as a control for non-specific binding and bulk effects. Purified CaM was injected at different concentrations ranging from 13.2 nM to 9.6 µM in duplicate, at a flowrate of 50 µl/min, with an association time of 60 s followed by dissociation for 60 s. After that, the sensor chip was regenerated by injection of 10 mM glycine–HCl, pH 1.7, with a contact time of 12 s. […] Sensorgrams with different concentrations of CaM were overlaid, aligned and analyzed with BIAevaluation Software 4.1, using the double-reference method. […]
For “KGGSVKEGAQRKAAAAKEKAG [Peptide W11L14L18A, 2-19 INF2 peptide with the triple W11L14L18A mutation]”, the “affinity / interaction with CaM relative to the intact 2-19 peptide (in words)” value was “undetectable”.
In the case of “KGGSVKEGAQRKAAALKEKLG [Peptide W11A, 2-19 INF2 peptide with the W11A mutation]”, the “affinity / interaction with CaM relative to the intact 2-19 peptide (in words)” value is reported as “undetectable”.
With “KGGSVKEGAQRKWAAAKEKAG [L14L18A 2-19 peptide, 2-19 INF2 peptide with the double L14L18A mutation]” the “affinity / interaction with CaM relative to the intact 2-19 peptide (in words)” value was “reduced affinity”.
